This note sets out measurements from patent US7626027B2, “Substituted 1H-pyrrolo[2,3-c]pyridine-2-carboxamides and related analogs as inhibitors of casein kinase Iε” (Aventis Pharmaceuticals Inc, priority 2003, dated 2009).

Molecules are shown by their SMILES. pIC50: −log10 of the molar value. Read-outs that look alike come from different tables or passages of the source.

Data set [1] relates to Mper1-luc Rat-1 fibroblasts (P2C4). The data set is described as follows: Cellular Circadian Assay (Mper1-luc reporter period lengthening). As to conditions: effective micromolar concentration that induced a 1 hour lengthening of circadian period. It counts as cell-based. The text has this:
The assay consists of Rat-1 fibroblasts stably expressing an Mper1-luc construct, thus enabling the determination of the rhythmic activation of the Mper1 promoter in living cells by repeatedly estimating luciferase activity by monitoring light-output over several days. The repeated measure format of the assay permits accurate and reproducible assessment of the concentration-dependent effects of CKIε inhibitors on circadian rhythm and provides the nexus for relating CKIε inhibition to circadian period alteration.
Cellular Circadian Assay Experimental Procedures
Stable transfection: Rat-1 fibroblast cultures at 30-50% confluence were co-transfected with vectors containing the Zeocin resistance selectable marker for stable transfection and an mPer-1 promoter-driven luciferase reporter gene. After 24-48 hours, cultures were split onto 96 well plates and maintained in growth media supplemented with 50-100 μg/mL Zeocin (Invitrogen #45-0430) for 10-14 days. Zeocin-resistant stable transfectants were assessed for reporter expression by supplementing growth media with 100 μM luciferin (Promega #E1603) and assaying luciferase activity on a TopCount scintillation counter (Packard Model #C384V00). […] Mper1-luc Rat-1 fibroblasts clone P2C4 was selected for compound testing. […] After synchronization, cultures were rinsed with 100 μL EMEM (Celigro #10-010-CV) for 10 minutes at room temperature. […] Compounds tested for circadian effects were added to CO2-independent media in 0.3% DMSO (final concentration). […] In Vivo luciferase activity was estimated by measuring relative light output on a TopCount scintillation counter (Packard Model #C384V00). Plates were transferred from incubator to reader using an ORCA robotic arm (Beckman Instruments) and SAMI-NT automated scheduling software (Version 3.3; SAGIAN/Beckman Instruments). Data Analysis: Microsoft Excel and XLfit (Version 2.0.9; IDBS) were used to import, manipulate and graph data. Period analysis was performed either by determining the interval between relative light output minima over several days or by Fourier Transform. […] Potency is reported as EC≡t+1h, which is presented as the effective micromolar concentration that induced a 1 hour lengthening of period. The data was analyzed by fitting a hyperbolic curve to the data expressed as period change (y-axis) versus the concentration of test compound (x-axis) in XLfit and the EC[…]t+1h was interpolated from this curve.

In a further data set the target is T1, casein kinase 1ε (Homo sapiens, UniProt P49674).
T1 construct: made in house
T1 sequence (P49674 whole entry): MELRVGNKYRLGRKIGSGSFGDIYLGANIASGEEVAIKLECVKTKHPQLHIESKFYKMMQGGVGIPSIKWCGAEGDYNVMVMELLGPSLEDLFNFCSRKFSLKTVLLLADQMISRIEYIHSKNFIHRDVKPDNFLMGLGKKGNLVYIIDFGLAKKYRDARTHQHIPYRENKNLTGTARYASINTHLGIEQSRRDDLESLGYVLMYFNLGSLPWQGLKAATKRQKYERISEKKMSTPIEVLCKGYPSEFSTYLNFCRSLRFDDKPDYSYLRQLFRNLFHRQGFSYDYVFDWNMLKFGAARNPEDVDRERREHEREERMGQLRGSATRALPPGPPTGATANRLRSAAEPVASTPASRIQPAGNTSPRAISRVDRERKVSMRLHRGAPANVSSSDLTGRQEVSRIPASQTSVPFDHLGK
The data set is described as follows: Casein Kinase Epsilon 33P-ATP Filter Plate Assay. It counts as biochemical. From the text: Casein Kinase Epsilon ^33P-ATP Filter Plate Assay for Screening CK1 Inhibitors Purpose: This assay measures the effect of compounds to inhibit the phosphorylation of the substrate casein by the enzyme casein kinase 1ε using an in vitro ^33P-ATP filtration assay.
Equipment: • Beckman Biomek 2000 Liquid Handling Robot • Beckman Multimek 96 Automated 96 Channel Pipettor • Millipore Vacuum Manifold Basic Kit # MAVM0960R • Titertek Multidrop Liquid Dispenser • Packard TopCount NXT Liquid Scintillation Counter
Enzyme: • Casein Kinase 1ε final concentration 0.58 mg/ml obtained from fermentation and purification processes performed by Aventis Pharmaceuticals Inc., France. The above are stored as 100 μL aliquots at minus 80° C.
Compounds: • Compounds for testing are supplied as frozen 10 mM compound stock dissolved in 100% DMSO. Assay Conditions:
Final total assay volume per well is equal to 50 μL made up as follows: • 5 μL of diluted compound stock ([…], 0.1, 0.01 or 0.001 μM), • 5 μL of dephosphorylated casein final concentration 0.2 μg/μL, • 20 μL of CK1ε final concentration 3 ng/μL, and • 20 μL of γ-^33P-ATP final concentration 0.02 μCi/μL mixed with cold ATP (10 μM final). Methodology: • 1. 500 mL of fresh assay buffer is made: 50 mM Tris pH 7.5, 10 mM MgCl2, 2 mM DTT and 1 mM EGTA • 2. Compounds to be evaluated are obtained as 10 μL of 10 mM stock dissolved in 100% DMSO. Using a Biomek 2000 liquid handling robot, serial dilutions are made to yield 10, 1, 0.1, 0.01 and 0.001 μM final compound dilutions added as 5 μL additions to Falcon U bottom plates. […] A routine screening assay will consist of 32 compounds, which equals 4 assay plates. • 3. Assay plate maps are set up according to the following pattern
• 4. […] Finally 20 μL […] (0.02 μCi/μL)/10 μM cold ATP are added (equals approximately 2×10^6 CPM per well). • 6. The Falcon U-Bottom assay plate containing the above 50 μL reaction volume is vortexed and then incubated at room temperature for 2 hours. • 7. At the end of 2 hours, the reaction is stopped by the addition of 65 μL of ice cold 2 mM cold ATP (made up in assay buffer) to the assay plates using a Beckman Multimek • 8. At the same time 25 μL 100% ice cold TCA made up in distilled H2O is added to a matching number of Millipore MAPH filter plates. • 9. Using a handheld 8-channel pipettor, 100 μL of the reaction mixture is transferred from the Falcon U-Bottom Plate to the Millipore MAPH filter plates presoaked with TCA. • 10. The Millipore MAPH filter plates are mixed gently and allowed to sit at room temperature for at least 30 minutes to precipitate the proteins. • 11. After 30 minutes the filter plates are placed on a Millipore vacuum manifold and filtered at no more than 8 mm Hg as the MAPH filters tend to “air lock” at higher vacuum settings. • 12. The filter plates are sequentially washed and filtered with 2×150 μL 20% TCA, 2×150 μL 10% TCA and 2×150 μL 5% TCA (total of 6 washes per plate/900 μL per well). • 13. Plates are allowed to dry overnight at room temperature. The next day 40 μL Packard Microscint-20 Scintillation Fluid is added per well using a Titertek Multidrop dispenser; the plates are sealed and counted for 2 minutes/well in a Packard Topcount NXT Scintillation Counter (CPM values/well are captured). Calculation: • 1. Counts Per Minute (CPM) data is captured and imported into a proprietary data calculation and archiving database (Activity Base by IDBS version 5.0). • 2. Column 1 for each plate reflects total phosphorylation activity of the enzyme in the absence of any inhibiting compound and thus represents 100%. Column 12 reflects any nonspecific phosphorylation/retained radioactivity activity in the absence of inhibiting compound and enzyme.

The melting point is the temperature, or range, at which the solid turns liquid. For orientation: pIC50 means the negative decadic logarithm of the IC50, by convention in mol/L. The compound `NC(=O)c1[nH]c2cccnc2c1Sc1ccccc1` [Ia-1, 3-Phenylsulfanyl-1H-pyrrolo[3,2-b]pyridine-2-carboxylic acid amide] gave a melting point of 251 °C. Also, the “Cell Assay ECΔτ+1h” value in data set [1] turned out to be 0.27 µM. The compound also gave a pIC50 against casein kinase 1ε of 7.44.
Consider `NC(=O)c1[nH]c2cccnc2c1Sc1cccc(F)c1` [Ia-2, 3-(3-Fluorophenylsulfanyl)-1H-pyrrolo[3,2-b]pyridine-2-carboxylic acid amide], for which the melting point lay within 235 to 237 °C. Further, the “Cell Assay ECΔτ+1h” value in data set [1] amounted to 0.51 µM. The pIC50 at casein kinase 1ε is 7.13.
The like results for `NC(=O)c1[nH]c2cccnc2c1Sc1cccc(Cl)c1` [Ia-3, 3-(3-Chlorophenylsulfanyl)-1H-pyrrolo[3,2-b]pyridine-2-carboxylic acid amide] were, in that order, 246.5 to 248 °C, 0.31 µM and 7.59.
For `NC(=O)c1[nH]c2cccnc2c1Sc1cccc(Br)c1` [Ia-4, 3-(3-Bromophenylsulfanyl)-1H-pyrrolo[3,2-b]pyridine-2-carboxylic acid amide], in data set [1], the “Cell Assay ECΔτ+1h” value stood at 0.12 µM. The compound further showed a pIC50 at casein kinase 1ε of 7.60.
In the case of `NC(=O)c1[nH]c2cccnc2c1Sc1ccccc1Cl` [Ia-5, 3-(2-Chlorophenylsulfanyl)-1H-pyrrolo[3,2-b]pyridine-2-carboxylic acid amide], the “Cell Assay ECΔτ+1h” value in data set [1] is 1.13 µM. The same compound had a pIC50 at casein kinase 1ε of 5.19.
`NC(=O)c1[nH]c2cccnc2c1Sc1ccc(Cl)cc1` [Ia-6, 3-(4-Chlorophenylsulfanyl)-1H-pyrrolo[3,2-b]pyridine-2-carboxylic acid amide] displayed a melting point of 266 °C. Further, the “Cell Assay ECΔτ+1h” value in data set [1] was determined as 13.8 µM. In addition, the pIC50 against casein kinase 1ε was 6.31.
`NC(=O)c1[nH]c2cccnc2c1Sc1ccc(Cl)cc1Cl` [Ia-7, 3-(2,4-Dichlorophenylsulfanyl)-1H-pyrrolo[3,2-b]pyridine-2-carboxylic acid amide] came in with a melting point of 266 °C. The compound further gave a pIC50 against casein kinase 1ε of less than 5.00.
Turning to `NC(=O)c1[nH]c2cccnc2c1Sc1ccccc1F` [Ia-8, 3-(2-Fluorophenylsulfanyl)-1H-pyrrolo[3,2-b]pyridine-2-carboxylic acid amide], the “Cell Assay ECΔτ+1h” value in data set [1] was 0.75 µM. On casein kinase 1ε, this compound had a pIC50 of 6.27.
For the compound `NC(=O)c1[nH]c2cccnc2c1Sc1ccccc1C(F)(F)F` [Ia-10, 3-(2-Trifluormethylphenylsulfanyl)-1H-pyrrolo[3,2-b]pyridine-2-carboxylic acid amide], the “Cell Assay ECΔτ+1h” value in data set [1] was determined as 2.94 µM. Moreover, the pIC50 at casein kinase 1ε (phosphorylation of casein, 10 μM cold ATP, 2 hours room temperature, * denotes average of 2 or more determinations, read-out: Casein Kinase Iε 33P-ATP Filter Plate Assay IC50) is 5.54.
For `NC(=O)c1[nH]c2cccnc2c1Sc1ccccc1N` [Ia-12, 3-(2-Aminophenylsulfanyl)-1H-pyrrolo[3,2-b]pyridine-2-carboxylic acid amide], in data set [1], the “Cell Assay ECΔτ+1h” value worked out at 0.44 µM. Moreover, on casein kinase 1ε, the pIC50 was 7.44.
As for `COc1cccc(Sc2c(C(N)=O)[nH]c3cccnc23)c1` [Ia-15, 3-(3-Methoxy-phenylsulfanyl)-1H-pyrrolo[3,2-b]pyridine-2-carboxylic acid amide], the “Cell Assay ECΔτ+1h” value in data set [1] came to 1.1 µM. This compound showed a pIC50 on casein kinase 1ε of 6.96.
For the compound `NC(=O)c1[nH]c2cccnc2c1Sc1cccc([N+](=O)[O-])c1` [Ia-18, 3-(3-Nitro-phenylsulfanyl)-1H-pyrrolo[3,2-b]pyridine-2-carboxylic acid amide], the “Cell Assay ECΔτ+1h” value in data set [1] was greater than 10 µM. The pIC50 against casein kinase 1ε was 6.73.
With `Cc1ccc(Sc2c(C(N)=O)[nH]c3cccnc23)cc1` [Ia-20, 3-p-Tolylsulfanyl-1H-pyrrolo[3,2-b]pyridine-2-carboxylic acid amide], the “Cell Assay ECΔτ+1h” value in data set [1] was greater than 10 µM. Moreover, the pIC50 at casein kinase 1ε was 6.58.
Turning to `Cc1cccc(Sc2c(C(N)=O)[nH]c3cccnc23)c1` [Ia-22, 3-m-Tolylsulfanyl-1H-pyrrolo[3,2-b]pyridine-2-carboxylic acid amide], the “Cell Assay ECΔτ+1h” value in data set [1] was greater than 10 µM. At casein kinase 1ε, the pIC50 is 7.14.
Regarding `NC(=O)c1[nH]c2cccnc2c1Sc1cccc2cccnc12` [Ia-25, 3-(Quinolin-8-ylsulfanyl)-1H-pyrrolo[3,2-b]pyridine-2-carboxylic acid amide], the “Cell Assay ECΔτ+1h” value in data set [1] worked out at 2.26 µM. Besides, the negative logarithm of the IC50 (pIC50) against casein kinase 1ε is 5.81.
